# Test results: US9120760B2, “Fluoro-homoneplanocin A and nucleoside derivatives, method for the synthesis thereof, and the pharmaceutical compositions comprising the same as an active component for treatment of cancer” (EWHA UNIVERSITY—INDUSTRY COLLABORATION FOUNDATION, priority 2012, dated 2015)
# Tests used:
# Assay type in all cases: cell-based
# [1] = tested on: HCT-116 (colorectal cancer); assay: SRB cell growth inhibition assay, HCT-116; settings: Homo sapiens, 96 hours, read-out: concentration of the drug to inhibit the cell growth by 50%
# Text: (§1) Measurement of the Growth Inhibition Ability Against Cancer Cells
# (§2) Human cancer cell strains were obtained through the following paths: OVCAR-3 (ovarian cancer), MCF-7 (hormone dependent breast cancer), MDA-MB-231 (breast cancer), HeLa (cervical cancer), PC3 (prostate cancer), LNCap (prostate cancer), HepG2 (liver cancer), A549 (lung cancer), NCI-H226 (lung cancer), Caki-1 (kidney cancer), SK-MEL-28 (melanoma cancer), HT-29 (colorectal cancer), HCT116 (colorectal cancer) and PANC-1 (pancreas cancer) cells were purchased from American Type Culture Collection (ATCC) (Manassas, Va.); U251(brain tumor) cells were purchased from Riken Institutes, Marunouchi, Tokyo, Japan; MKN-45 (gastric cancer) cells were purchased from DSMZ (Germany); and UMRC2 (kidney cancer) cells were purchased from U.S. National Cancer Institute (Bethesda, Md.).
# (§3) MDA-MB-231, HCT116, UMRC2, Caki-1 and PANC-1 cells were cultured in Dulbecco's modified Eagle's medium (“DMEM”, Invitrogen) including 10% FBS, 100 units/mL penicillin-streptomycin (P/S), 10 mM HEPES and 2 mM L-glutamine. All the other cell strains were cultured in RPMI1640 medium (Invitrogen, Carlsbad, Calif.) including 10% fetal bovine serum (FBS), 1 mM sodium pyruvate, 10 mM HEPES, and 100 units/mL penicillin-streptomycin (P/S). All cells were cultured at 37° C. 5% CO2 humid conditions.
# (§4) The cell growth inhibition level of the novel compound synthesized using (1S,2R,5S)-5-(6-Aminopurine-9-yl)-4-fluoro-3-hydroxyethyl-cyclopent-3(4)-en-1,2-diol (compound of Formula 1 where X is NH2 and R2 is H) prepared in the above Example 3, (1S,2R,5S)-4-Fluoro-3-hydroxyethyl-5-(uracil-1-yl)-cyclopent-3(4)-en-1,2-diol (Compound 10) prepared in the above Example 4, (1S,2R,5S)-5-(Cytosine-1-yl)-4-fluoro-3-hydroxyethyl-cyclopent-3(4)-en-1,2-diol (Compound 11) prepared in the above Example 5, Fluoro-neplanocin A, and Homoneplanocin A was analyzed by SRB (sulphorhodamine B) assay according to the publicly known method in the literature.
# (§5) Human cancer cell strains increased exponentially were divided into the 96-well plates at the density of 2×10^3 to 3×10^3 cells/well and processed with the compounds of the various concentrations in the present invention on the next day. 0.25% DMSO was used as a control group. Three experiments were performed for each process. The cells were fixed with 10% trichloro-acetic acid at 96 hours after processing with the compound and SRB analysis was carried out. Optical density was measured at 530 nm with Benchmark PlusMicroplate Reader (Bio-Rad Laboratories, Hercules, Calif.). The concentration of the drug to inhibit the cell growth by 50% […] was measured with Kaledia Graph (Synergy software, Reading, Pa.).
# [2] = tested on: PC-3 (prostate cancer); assay: SRB cell growth inhibition assay, PC-3; settings: Homo sapiens, 96 hours, read-out: concentration of the drug to inhibit the cell growth by 50%
# Text: as §1, §2, §3, §4, §5
# [3] = tested on: T47D (breast cancer); assay: SRB cell growth inhibition assay, T47D; settings: Homo sapiens, 96 hours, read-out: concentration of the drug to inhibit the cell growth by 50%
# Text: [Worded in the source for another cell line; this cell line is reported under the same test.] as §1, §2, §3, §4, §5
# [4] = tested on: SNU638 (gastric cancer); assay: SRB cell growth inhibition assay, SNU638; settings: Homo sapiens, SNU-638, 96 hours, read-out: concentration of the drug to inhibit the cell growth by 50%
# Text: [Worded in the source for another cell line; this cell line is reported under the same test.] as §1, §2, §3, §4, §5
# [5] = tested on: A549 (lung cancer); assay: SRB cell growth inhibition assay, A549; settings: Homo sapiens, 96 hours, read-out: concentration of the drug to inhibit the cell growth by 50%
# Text: as §1, §2, §3, §4, §5
# [6] = tested on: K562 (blood cancer); assay: SRB cell growth inhibition assay, K562; settings: Homo sapiens, 96 hours, read-out: concentration of the drug to inhibit the cell growth by 50%
# Text: [Worded in the source for another cell line; this cell line is reported under the same test.] as §1, §2, §3, §4, §5
IC50 [1],IC50 [2],IC50 [3],IC50 [4],IC50 [5],IC50 [6],Compound
1.1 µM,2.39 µM,2.83 µM,0.37 µM,0.62 µM,0.13 µM,"Nc1ncnc2c1ncn2[C@@H]1C(F)=C(CCO)[C@@H](O)[C@H]1O [Compound of Formula 1, (1S,2R,5S)-5-(6-Aminopurine-9-yl)-4-fluoro-3-hydroxyethyl-cyclopent-3(4)-en-1,2-diol]"
> 10 µM,> 10 µM,> 10 µM,> 10 µM,> 10 µM,> 10 µM,"O=c1ccn([C@@H]2C(F)=C(CCO)[C@@H](O)[C@H]2O)c(=O)[nH]1 [Compound 10, (1S,2R,5S)-4-Fluoro-3-hydroxyethyl-5-(uracil-1-yl)-cyclopent-3(4)-en-1,2-diol]"
1.4 µM,3.1 µM,3.6 µM,1.3 µM,2.6 µM,2.2 µM,"Nc1ncnc2c1ncn2C1C(F)=C(CO)C(O)C1O (stereo not drawn) [Fluoro-neplanocin A, reference compound]"
> 10 µM,> 10 µM,> 10 µM,> 10 µM,> 10 µM,> 10 µM,"Nc1ccn([C@@H]2C(F)=C(CCO)[C@@H](O)[C@H]2O)c(=O)n1 [Compound 11, (1S,2R,5S)-5-(Cytosine-1-yl)-4-fluoro-3-hydroxyethyl-cyclopent-3(4)-en-1,2-diol]"
> 10 µM,> 10 µM,> 10 µM,> 10 µM,> 10 µM,> 10 µM,Nc1ncnc2c1ncn2C1C=C(CCO)C(O)C1O (stereo not drawn) [Homoneplanocin A]
